Common to all, as to format: biochemical
For experiment [1], the target named is T1, R140Q IDH2 (Homo sapiens, UniProt P48735, R140Q).
T1 construct: made in house; host or cells: Sf21 insect cells (cell pellets prepared at Evotec)
T1 sequence (P48735 40-452 R140Q): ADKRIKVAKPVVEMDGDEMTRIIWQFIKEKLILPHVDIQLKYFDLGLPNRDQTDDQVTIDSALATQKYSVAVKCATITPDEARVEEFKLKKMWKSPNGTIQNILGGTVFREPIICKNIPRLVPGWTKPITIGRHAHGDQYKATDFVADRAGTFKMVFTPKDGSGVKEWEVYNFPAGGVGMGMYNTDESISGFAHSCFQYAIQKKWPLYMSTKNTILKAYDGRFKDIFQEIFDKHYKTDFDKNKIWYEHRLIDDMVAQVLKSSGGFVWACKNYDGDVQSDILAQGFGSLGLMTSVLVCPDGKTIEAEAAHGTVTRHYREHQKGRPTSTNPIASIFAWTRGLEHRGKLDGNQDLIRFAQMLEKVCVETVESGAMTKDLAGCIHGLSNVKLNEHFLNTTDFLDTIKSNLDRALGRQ
Briefly: Absorbance assay, variant activity in the presence of equimolar 2OG (inhibition screen). To be noted: 6.0 mM 2OG and 6.0 mM test compound, 0.03 μM R140Q IDH2, 50 μM NADPH. The method in brief:
(§1)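 Starting each reaction by automated reagent dispensing after simultaneous compound pipetting, the work used quadruplicate technical replicates.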

For experiment [2], the target named is T2, R172K IDH2 (Homo sapiens, UniProt P48735, R172K).
T2 construct: made in house; host or cells: Sf21 insect cells (cell pellets prepared at Evotec)
T2 sequence (P48735 40-452 R172K): T1 sequence (P48735 40-452 R140Q) with Q101R, R133K
Described as above. To be noted: 1.0 mM 2OG and 1.0 mM test compound, 0.03 μM R172K IDH2, 50 μM NADPH. The method in brief: as §1

Experiment [3] addresses T1, R140Q IDH2. Nature of the experiment: Steady-state kinetics, absorbance assay. To be noted: 0.03 μM enzyme, 50 μM NADPH, 20 mM MgCl2, pH 8.0. On the procedure:
(§2) Compounds were dispensed using a CyBio SDW-CW CyBi-Well Simultaneous Pipettor and assay started using a ThermoFisher Multidrop Combi reagent dispenser.
(§3) Reactions were performed as technical duplicates, and all assays were carried out in two independent duplicates.

Experiment [4] concerns the target T2, R172K IDH2. Nature of the experiment: Steady-state kinetics, absorbance assay. To be noted: 0.03 μM enzyme, 50 μM NADPH, 20 mM MgCl2, pH 8.0. The procedure: as §2, §3
In the next experiment the target is T3, WT IDH1 (Homo sapiens, UniProt O75874).
T3 construct: made in house; host or cells: Escherichia coli BL21(DE3) pLyS
Nature of the experiment: Absorbance assay, WT activity in the presence of equimolar DL-isocitrate (inhibition). To be noted: […] isocitrate and […] test compound, 75 μM NADP+, 2.0 nM WT IDH1. The method in brief: as §1

A further experiment addresses T4, WT IDH2 (Homo sapiens, UniProt P48735).
T4 construct: made in house; host or cells: Sf21 insect cells (cell pellets prepared at Evotec)
T4 sequence (P48735 40-452): T1 sequence (P48735 40-452 R140Q) with Q101R
The experiment is described as above. To be noted: […] isocitrate and […] test compound, 75 μM NADP+, 2.0 nM WT IDH2. The method in brief:
as §1

For experiment [5], the target named is T5, R132H IDH1 (Homo sapiens, UniProt O75874, R132H). Briefly: Steady-state kinetics, absorbance assay. Also on record: made in house; host or cells: Escherichia coli BL21(DE3) pLyS. The procedure: as §2, §3
Target sequence in this assay (O75874 whole entry R132H): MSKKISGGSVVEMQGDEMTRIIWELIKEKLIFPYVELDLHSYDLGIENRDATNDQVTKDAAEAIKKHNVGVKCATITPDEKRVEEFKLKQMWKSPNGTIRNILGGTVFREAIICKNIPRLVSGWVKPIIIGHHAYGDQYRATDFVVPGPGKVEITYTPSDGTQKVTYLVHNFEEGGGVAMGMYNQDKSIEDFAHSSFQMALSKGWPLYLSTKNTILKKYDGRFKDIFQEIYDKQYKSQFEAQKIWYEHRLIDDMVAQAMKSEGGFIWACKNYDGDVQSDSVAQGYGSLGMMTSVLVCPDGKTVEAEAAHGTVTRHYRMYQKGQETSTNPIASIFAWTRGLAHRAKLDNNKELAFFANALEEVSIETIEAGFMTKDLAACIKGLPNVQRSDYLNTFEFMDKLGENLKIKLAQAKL
Experiment [6] concerns the target T5, R132H IDH1. Briefly: Electrochemical assay (FNR+R132H IDH1)@ITO/PGE electrode. Set-up: made in house; host or cells: Escherichia coli BL21(DE3) pLyS (IDH1 R132H). The procedure: Assays were carried out in an anaerobic glovebox (Glove Box Technology) under a nitrogen atmosphere. A potentiostat (Autolab PGSTAT 10) running on Nova software was used for all experiments. As previously described, the electrochemical apparatus included an Autolab electrode rotator, a two-chamber custom-made glass electrochemical cell, and custom-made rotating pyrolytic graphite edge (PGE) electrodes ([55]). Platinum wire was used as the counter electrode; it was placed in the working electrode chamber. Electrode potentials (E) were measured against a saturated calomel electrode and converted to the standard hydrogen electrode using a temperature-dependent equation (at 25 °C: ESHE = ESCE + 0.2412 V) ([55]). Nanoporous indium tin oxide (ITO) electrodes were made by electrophoretically depositing ITO nanoparticles (<50 nm, Sigma-Aldrich) onto PGE electrodes (ITO/PGE) as previously described ([55]). […] In all experiments, 0.85 nmol (homodimer basis) of IDH1 R132H was used; the amount of coloaded FNR was adjusted to achieve the desired enzyme loading ratio. Electrodes loaded with enzyme were thoroughly rinsed using buffer solution before each experiment to remove excess enzyme. […]
and controlled electrochemically under steady-state conditions (1).
Conditions: 25 °C, mixed buffer (20 […]
mM each MES, TAPS, CHES, pH 8.0), 10 mM MgCl2, 10 µM NADPH, 4 mL cell volume, (FNR+R132H IDH1)@ITO/PGE electrode, electrode area 0.06 cm2, rotated at 1000 rpm, E = –0.513 V vs SHE, enzyme loading ratios (molar): FNR/R132H IDH1; 2.5 (dimer basis).
(1 picture or pasted object on this page, not shown here)
Target sequence in this assay (O75874 2-414 R132H): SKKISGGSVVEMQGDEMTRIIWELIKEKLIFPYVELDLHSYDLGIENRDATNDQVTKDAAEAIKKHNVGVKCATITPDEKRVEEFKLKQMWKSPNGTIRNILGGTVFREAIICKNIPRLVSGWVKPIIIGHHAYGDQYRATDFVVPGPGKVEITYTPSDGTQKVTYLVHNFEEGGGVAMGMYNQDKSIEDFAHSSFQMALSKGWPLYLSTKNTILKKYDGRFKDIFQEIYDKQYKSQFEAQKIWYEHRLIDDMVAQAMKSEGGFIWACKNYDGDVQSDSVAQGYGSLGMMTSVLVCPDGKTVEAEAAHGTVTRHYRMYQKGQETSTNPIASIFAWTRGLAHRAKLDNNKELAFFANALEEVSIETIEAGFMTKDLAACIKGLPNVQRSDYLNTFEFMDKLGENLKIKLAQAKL

Where [7] appears, read: 0.03 μM enzyme, 50 μM NADPH, 20 mM MgCl2, pH 8.0.

Positions count from the first letter of the chain named. Values joined by “and” are separate entries in the source; they are usually repeats but may differ in a detail not shown here. Equal values may be shown once.

T3 sequence (O75874 whole entry): as the sequence (O75874 whole entry R132H) above, with H132R counted along it

As a reminder, the Vmax is the rate approached at saturating substrate. Regarding `O=C(O)CCC(=O)C(=O)O` [2OG, 2-oxoglutarate, reference compound], the “activity [%] (%-substrate conversion after 20 min incubation)” value on R140Q IDH2 [1] turned out to be 100%; on R172K IDH2 [2] it was 100%; at WT IDH1, 93 ± 1%; on WT IDH2, 91 ± 1%. Further, the Kmapp at R140Q IDH2 [3] was 5.1 ± 1.2 mM and ~5.1 mM; at R172K IDH2 [4], 0.35 ± 0.04 mM; at R132H IDH1 [5] (setting [7]), ~ 0.85 mM and 0.85 ± 0.19 mM and 0.85 mM. In addition, the kcatapp is 0.49 ± 0.04 s⁻¹ and 0.5 to 0.7 s⁻¹ on R140Q IDH2 [3]; 0.72 ± 0.04 s⁻¹ and 0.5 to 0.7 s⁻¹ on R172K IDH2 [4]; 0.72 ± 0.04 s⁻¹ and 0.5 to 0.7 s⁻¹ on R132H IDH1 [5] (setting [7]). Besides, the Vmax on R132H IDH1 [5] (experimental value used for Michaelis-Menten simulation, Fig. 3H) was 1.3 µM/min. The “predicted change in catalytic rate” value at R132H IDH1 [6] is −9%. On R132H IDH1 [6] (25 °C, pH 8.0, 10 mM MgCl2, 10 µM NADPH, nanoconfined enzyme), the “Kmapp (electrochemical assay)” value is on record as about 0.6 mM. Also, the “decrease of R132H IDH1 faradaic 'coupled' current during each scan” value at R132H IDH1 [6] (cyclic voltammetry, stationary electrode, 20 μM NADPH, 10 mM MgCl2, pH 8) was −10%.

(Values after article PMC9939733 (The Journal of Biological Chemistry, 2023).)
